Experimental data taken from US9708306B2, “Benzimidazole derivatives and preparation process and pharmaceutical uses thereof” (WUHAN LL SCIENCE AND TECHNOLOGY DEVELOPMENT CO., LTD, priority 2015, dated 2017).

Legend:
[1] = system: normal rats; test: Effect on blood pressure of normal rats by single oral administration; type: in vivo, Wistar rats; conditions: Rattus norvegicus, po, single, normal rats; for inhibition in vivo at 0.5 mg/kg / inhibition in vivo at 1 mg/kg / inhibition in vivo at 2 mg/kg: 8 h, read-out: blood pressure reduction at 8 h after the administration; for inhibition in vivo at 0.5 mg/kg / change in vivo at 0.5 mg/kg: 0.5 mg/kg p.o.; for inhibition in vivo at 1 mg/kg / change in vivo at 1 mg/kg: 1.0 mg/kg p.o.; for inhibition in vivo at 2 mg/kg / change in vivo at 2 mg/kg: 2.0 mg/kg p.o.; for change in vivo at 0.5 mg/kg / change in vivo at 1 mg/kg / change in vivo at 2 mg/kg: read-out: variations on heart rate
[2] = system: renovascular hypertensive rats; test: Effect on reducing blood pressure of renovascular hypertensive rats by single oral administration; type: in vivo, Wistar rats; conditions: for change in vivo at 0.5 mg/kg / inhibition in vivo at 0.5 mg/kg / change in vivo at 1 mg/kg / inhibition in vivo at 1 mg/kg / change in vivo at 2 mg/kg / inhibition in vivo at 2 mg/kg: Rattus norvegicus, single oral administration; for change in vivo at 0.5 mg/kg / change in vivo at 1 mg/kg / change in vivo at 2 mg/kg: RHR, read-out: Variations on heart rate; for inhibition in vivo at 0.5 mg/kg / inhibition in vivo at 1 mg/kg / inhibition in vivo at 2 mg/kg: two-kidney one-clip RHR, measured 1-10 h, read-out: Maximum blood pressure reduction

Structure (SMILES) | inhibition in vivo at 0.5 mg/kg [1] | inhibition in vivo at 1 mg/kg [1] | inhibition in vivo at 2 mg/kg [1] | change in vivo at 0.5 mg/kg [1] | change in vivo at 1 mg/kg [1] | change in vivo at 2 mg/kg [1] | change in vivo at 0.5 mg/kg [2] | inhibition in vivo at 0.5 mg/kg [2] | change in vivo at 1 mg/kg [2] | inhibition in vivo at 1 mg/kg [2] | change in vivo at 2 mg/kg [2] | inhibition in vivo at 2 mg/kg [2] | blood pressure reduction effect compared with Azilsartan medoxomil ([2]; renal artery-ligated rat, result in words)
CCOc1nc2cccc(C(=O)OCCO[N+](=O)[O-])c2n1Cc1ccc(-c2ccccc2-c2noc(=O)[nH]2)cc1 [QR01016] | 3.6 ± 2.8% | 4.2 ± 5.7% | 5.9 ± 3.2% | 1% | 5% | 3% | 1% | 11 ± 3.1% | 5% | 12 ± 9.2% | 4% | 15 ± 6.5% | –
CCOc1nc2cccc(C(=O)OCOC(=O)OCc3cn(C)cn3)c2n1Cc1ccc(-c2ccccc2-c2noc(=O)[nH]2)cc1 [QR01031] | 2.9 ± 2.6% | 4.5 ± 3.8% | 4.7 ± 3.1% | -5 ± 5% | -4 ± 3% | -8 ± 4% | -11 ± 5% | 18 ± 3.5% | -18 ± 6% | 25 ± 5.7% | -17 ± 5% | 32 ± 2.6% | –
CCOc1nc2cccc(C(=O)OCOC(=O)OCc3ccn(C)c3)c2n1Cc1ccc(-c2ccccc2-c2noc(=O)[nH]2)cc1 [QR01032] | 4.7 ± 3.1% | 5.2 ± 2.7% | 4.8 ± 3.6% | -8 ± 6% | -5 ± 2% | -3 ± 5% | -8 ± 6% | 20 ± 4.1% | -9 ± 4% | 28 ± 3.1% | -9 ± 5% | 35 ± 4.6% | close to that of Azilsartan medoxomil
CCOc1nc2cccc(C(=O)OC3COC4C(O[N+](=O)[O-])COC34)c2n1Cc1ccc(-c2ccccc2-c2noc(=O)[nH]2)cc1 (stereo not shown) [QR01007] | 3.5 ± 3.4% | 2.5 ± 4.6% | 3.7 ± 4.3% | -3 ± 2% | -7 ± 2% | 5% | -3 ± 1% | 10 ± 1.5% | -8 ± 3% | 12 ± 2% | -5 ± 2% | 18 ± 3.5% | –
CCOc1nc2cccc(C(=O)OCOC(=O)OCc3ccno3)c2n1Cc1ccc(-c2ccccc2-c2noc(=O)[nH]2)cc1 [QR01030] | 2.9 ± 3% | 5.2 ± 4.3% | 3.7 ± 5.8% | -2 ± 4% | 4% | -3 ± 5% | -12 ± 6% | 18 ± 2% | -20 ± 6% | 25 ± 3.6% | -18 ± 7% | 30 ± 4.6% | –
CCOc1nc2cccc(C(=O)OC(OC(=O)OCc3nc(C)c(C)nc3C)C(C)C)c2n1Cc1ccc(-c2ccccc2-c2noc(=O)[nH]2)cc1 (stereo not shown) [QR01027] | 5.2 ± 3% | 4.8 ± 4.2% | 2.8 ± 3.9% | -3 ± 4% | 5% | -3 ± 4% | -2 ± 3% | 14 ± 2% | -5 ± 3% | 18 ± 2.9% | -6 ± 4% | 23 ± 4.6% | –
CCOC(=O)C(=O)OC(C)C(=O)COC(=O)c1cccc2nc(OCC)n(Cc3ccc(-c4ccccc4-c4noc(=O)[nH]4)cc3)c12 (stereo not shown) [QR01015] | 3.7 ± 2.6% | 2.3 ± 1.8% | 1.8 ± 2.4% | 3% | 1% | -3 ± 3% | 4% | 10 ± 1.5% | 2% | 12 ± 2% | 3% | 18 ± 3.5% | –
CCOc1nc2cccc(C(=O)OCCOC(C)=O)c2n1Cc1ccc(-c2ccccc2-c2noc(=O)[nH]2)cc1 [QR01004] | 7.5 ± 1.4% | 6.7 ± 1.3% | 5.7 ± 2.6% | -1 ± 2% | -2 ± 1% | 3% | 0% | 7 ± 1.2% | -5 ± 3% | 10 ± 2.3% | -3 ± 1% | 12 ± 3.4% | –
